# Measurements reported in patent publication US11896586B2, “Apixaban formulations” (Bristol-Myers Squibb Company, priority 2018, dated 2024).
# Assay: Dissolution of apixaban in SLD coating solvent, monitored in situ by UV probe
# Type: physicochemical
# Protocol: Three aliquots of ethanol were dispensed. Apixaban was added to the first portion (1464 g) with stirring. This suspension was then added to a 20 L mixing vessel. To ensure complete API transfer, the remaining aliquots of ethanol (two aliquots of approximately 2600 g each) were used to rinse the suspension container surfaces and were subsequently added to the 20 L mixing vessel in step-wise fashion. The apixaban/ethanol solution was stirred using an overhead mixer at approximately 500 rpm for 50 minutes. Dissolution of apixaban in ethanol was monitored in-situ using a UV probe (absorbance range 278-282 nm, 2 mm tip opening, measure rate 1 s^−1).
compound,measurement,setting,value
"COc1ccc(-n2nc(C(N)=O)c3c2C(=O)N(c2ccc(N4CCCCC4=O)cc2)CC3)cc1 [apixaban, 1-(4-methoxyphenyl)-7-oxo-6-[4-(2-oxo-1-piperidinyl)phenyl]-4,5,6,7-tetrahydro-1H-pyrazolo[3,4-c]pyridine-3-carboxamide]",Time to full dissolution of apixaban,"ethanol, measured at 0.15 mgA/mL, UV 278-282 nm",less than 10 minutes
same,Time to full dissolution of apixaban,"ethanol/water/HPMC solution, apparent concentration 0.21 mgA/g, UV 280 nm",less than 10 minutes
